In brackets after ≈: the same amount, converted by molar mass. Read-outs that look alike come from different tables or passages of the source.
Assays:
Hymenolepsis nana = experiment: Activity against tapeworms Hymenolepsis nana in mice; type: in vivo, Hymenolepsis nana (infected Albimo mice); details: Mus musculus, po, 72 h, read-out: Activity: % of infected mice getting 100% clearance
Procedure: The anthelmintic properties of the products of the invention have been determined as follows:
Albimo mice of either sex (18-20 g.weight range) were administered by gavage 0.2 ml of the standard inoculum (containing 1000 viable eggs). 20 days later, the faecal matter was checked for Hymenolipis nana eggs. Mice showing the presence of H nana eggs were taken for experiments. They were classified on the weight basis. 5 animals were taken in each cage.
Compounds of the invention under investigation were suspended in 0.2% tragacanth. Concentrations were adjusted in such a way that 0.2 ml conformed to particular dosage schedule for each compound. They were administered by gavage in fasting condition in the morning on 21st day post infection, once daily for 3 consecutive days. For each set of test compound group, one cage of infected control mice was kept. These received saline for 3 days.
After 3 consecutive days of administration, all mice were kept fasting on the subsequent day (24th day post infection) and sacrificed on the 25th day. Results of surviving mice only have been taken. From each mouse, the whole intestine including caecum was collected in a petri dish with water. It was cut open longitudinally and was examined for adult worms and scolices. Absolute clearance of worms and scolices in individual mouse was taken as a criterion for assessing the results of each group.
The data on some of the compounds studied are represented in Table II

plant pathogenic fungi = details: C.A. Vol. 62, 14569e; cited from earlier work
Proteus vulgaris ox 19 = experiment: Antimicrobial serial dilution (MIC), Pr.ox; type: cell-based; details: OX19
Ps. aeruginosa = experiment: Antimicrobial serial dilution (MIC), P.a; type: cell-based; details: Pseudomonas aeruginosa
Staph. aureus = experiment: Antimicrobial serial dilution (MIC), S.a; type: cell-based; details: Staphylococcus aureus
S. typhi = experiment: Antimicrobial serial dilution (MIC), S.t; type: cell-based; details: Salmonella enterica
E.coli = experiment: Antimicrobial serial dilution (MIC), E.c.; type: cell-based; details: Escherichia coli
S.Shigae = experiment: microbe, parasite or virus in culture; type: cell-based; details: Shigella dysenteriae, read-out: MIC S.s
[1] = system: antibiotic resistant Staph aureus; experiment: Antimicrobial serial dilution (MIC), A/R S.a; type: cell-based; details: Staphylococcus aureus, read-out: MIC A/R S.a
[2] = system: Trichophyton mentagrophytes; experiment: Antimicrobial serial dilution (MIC), T.m; type: cell-based
microsporum gypseum = experiment: Antimicrobial serial dilution (MIC), M.gy; type: cell-based; details: Nannizzia gypsea
Phialophora jeanselmei = experiment: Antimicrobial serial dilution (MIC), Ph.je; type: cell-based; details: Exophiala jeanselmei
Aspergillus fumigatus = experiment: Antimicrobial serial dilution (MIC), A.f; type: cell-based
Nocardia asteroides = experiment: Antimicrobial serial dilution (MIC), N.a; type: cell-based
Candida albicans = experiment: Antimicrobial serial dilution (MIC), C.a; type: cell-based
[3] = 400 mg/kg/day × 3 days, gavage, surviving mice only

| SMILES | MIC (Proteus vulgaris ox 19) [µg/mL] | MIC (Ps. aeruginosa) [µg/mL] | MIC (Staph. aureus) [µg/mL] | MIC (S. typhi) [µg/mL] | MIC (E.coli) [µg/mL] | MIC (S.Shigae) [µg/mL] | MIC [1] [µg/mL] | MIC [2] [µg/mL] | MIC (microsporum gypseum) [µg/mL] | MIC (Phialophora jeanselmei) [µg/mL] | MIC (Aspergillus fumigatus) [µg/mL] | MIC (Nocardia asteroides) [µg/mL] | MIC (Candida albicans) [µg/mL] | further results |
| --- | --- | --- | --- | --- | --- | --- | --- | --- | --- | --- | --- | --- | --- | --- |
| O=C(Nc1ccccc1)Oc1ccc(C=C[N+](=O)[O-])cc1 | – | – | – | – | – | – | – | – | – | – | – | – | – | responders at 350 mg/kg (Hymenolepsis nana): 90% |
| Cc1ccc(NC(=O)Oc2ccc(C=C[N+](=O)[O-])cc2)cc1 | – | – | – | – | – | – | – | – | – | – | – | – | – | responders at 400 mg/kg (Hymenolepsis nana): 94% |
| CCCCNC(=O)Oc1ccc(C=C(C)[N+](=O)[O-])cc1Cl | – | – | – | – | – | – | – | – | – | – | – | – | – | responders at 400 mg/kg (Hymenolepsis nana; [3]): 100% |
| CC(=Cc1ccc(OC(=O)Nc2ccccc2)c(Cl)c1)[N+](=O)[O-] | – | – | – | – | – | – | – | – | – | – | – | – | – | responders at 400 mg/kg (Hymenolepsis nana; [3]): 100% |
| CC(=Cc1ccc(OC(=O)Nc2ccc(C)cc2)c(Cl)c1)[N+](=O)[O-] | – | – | – | – | – | – | – | – | – | – | – | – | – | responders at 400 mg/kg (Hymenolepsis nana; [3]): 100% |
| O=C(Nc1ccc(Br)cc1)Oc1cccc(C=C[N+](=O)[O-])c1 | – | – | – | – | – | – | – | – | – | – | – | – | – | responders at 400 mg/kg (Hymenolepsis nana): 100% |
| CC(=Cc1cccc(OC(=O)Nc2ccccc2)c1)[N+](=O)[O-] | – | – | – | – | – | – | – | – | – | – | – | – | – | responders at 400 mg/kg (Hymenolepsis nana; [3]): 100% |
| CC(=Cc1cccc(OC(=O)Nc2ccc(C)cc2)c1)[N+](=O)[O-] | – | – | – | – | – | – | – | – | – | – | – | – | – | responders at 200 mg/kg (Hymenolepsis nana; 200 mg/kg/day × 3 days, gavage, surviving mice only): 100% |
| O=[N+]([O-])C=Cc1ccc(O)c([N+](=O)[O-])c1 [3-nitro-4-hydroxy-β-nitrostyrene] | – | – | – | – | – | – | – | – | – | – | – | – | – | antifungal properties against plant pathogenic fungi (plant pathogenic fungi): antifungal properties against plant pathogenic fungi |
| CC(=Cc1ccc(OC(=O)Nc2ccc(C)cc2)cc1)[N+](=O)[O-] [drawing 3] | 6.25 (≈ 20 µM) | ≥ 50 | 6.25 (≈ 20 µM) | 50 (≈ 160 µM) | 6.25 (≈ 20 µM) | 12.5 (≈ 40 µM) | 6.25 (≈ 20 µM) | – | – | – | – | – | – | – |
| CC(=Cc1ccc(OC(=O)Nc2ccc(Br)cc2)cc1)[N+](=O)[O-] [drawing 4] | 6.25 (≈ 16.6 µM) | ≥ 50 | 6.25 (≈ 16.6 µM) | ≥ 50 | 6.25 (≈ 16.6 µM) | 6.25 to 12.5 (≈ 16.6 to 33.1 µM) | 12.5 (≈ 33.1 µM) | – | – | – | – | – | – | – |
| CCCCNC(=O)Oc1ccc(C=C(C)[N+](=O)[O-])cc1 [drawing 5] | 6.25 (≈ 22.5 µM) | ≥ 50 | 6.25 (≈ 22.5 µM) | 50 (≈ 180 µM) | 6.25 to 12.5 (≈ 22.5 to 44.9 µM) | 12.5 (≈ 44.9 µM) | 6.25 (≈ 22.5 µM) | – | – | – | – | – | – | – |
| CC(=Cc1ccc(OC(=O)NC2CCCCC2)cc1)[N+](=O)[O-] [drawing 6] | 6.25 to 12.5 (≈ 20.5 to 41.1 µM) | ≥ 50 | 3.12 (≈ 10.3 µM) | 50 (≈ 164 µM) | 6.12 to 12.5 (≈ 20.1 to 41.1 µM) | 12.5 (≈ 41.1 µM) | 3.12 (≈ 10.3 µM) | – | – | – | – | – | – | – |
| CC(=Cc1ccc(OC(=O)Nc2ccccc2)cc1)[N+](=O)[O-] [drawing 7] | 12.5 (≈ 41.9 µM) | ≥ 50 | 6.25 (≈ 21 µM) | 50 (≈ 168 µM) | 6.25 (≈ 21 µM) | 6.25 (≈ 21 µM) | 3.12 to 6.25 (≈ 10.5 to 21 µM) | – | – | – | – | – | – | – |
| CC(=Cc1cccc(O)c1)[N+](=O)[O-] [drawing 8] | 3.12 (≈ 17.4 µM) | 50 (≈ 279 µM) | 3.12 (≈ 17.4 µM) | 50 (≈ 279 µM) | 3.12 (≈ 17.4 µM) | 3.12 (≈ 17.4 µM) | 3.12 (≈ 17.4 µM) | – | – | – | – | – | – | – |
| CC(=Cc1ccc(Oc2ncc([N+](=O)[O-])s2)cc1)[N+](=O)[O-] [drawing 9] | 1.56 to 3.12 (≈ 5.08 to 10.2 µM) | ≥ 50 | 1.56 (≈ 5.08 µM) | 50 (≈ 163 µM) | 3.12 (≈ 10.2 µM) | 3.12 (≈ 10.2 µM) | 1.56 (≈ 5.08 µM) | – | – | – | – | – | – | – |
| CC(=Cc1ccc(O)c(Cl)c1)[N+](=O)[O-] [drawing 10] | 6.25 (≈ 29.3 µM) | ≥ 50 | 3.12 (≈ 14.6 µM) | 50 (≈ 234 µM) | 12.5 to 25 (≈ 58.5 to 117 µM) | 25 (≈ 117 µM) | 3.12 (≈ 14.6 µM) | – | – | – | – | – | – | – |
| O=[N+]([O-])C=Cc1cc(Cl)ccc1O [drawing 11] | 25 (≈ 125 µM) | ≥ 50 | 3.12 (≈ 15.7 µM) | 50 (≈ 251 µM) | 50 (≈ 251 µM) | 50 (≈ 251 µM) | 3.12 (≈ 15.7 µM) | – | – | – | – | – | – | – |
| CC(=Cc1ccc(OC(=O)Nc2ccc(Br)cc2)c(Cl)c1)[N+](=O)[O-] [drawing 12] | 6.25 (≈ 15.2 µM) | ≥ 50 | 6.25 (≈ 15.2 µM) | > 50 | 50 (≈ 121 µM) | 25 (≈ 60.7 µM) | 6.25 (≈ 15.2 µM) | – | – | – | – | – | – | – |
| CC(=Cc1ccc(OC(=O)Nc2ccc(C)cc2)cc1)[N+](=O)[O-] [drawing 13] | – | – | – | – | – | – | – | 3.12 (≈ 10 µM) | 1.56 to 3.12 (≈ 4.99 to 10 µM) | 6.25 (≈ 20 µM) | 12.5 (≈ 40 µM) | 25.5 (≈ 81.6 µM) | 12.5 (≈ 40 µM) | – |
| CC(=Cc1ccc(OC(=O)Nc2ccc(Br)cc2)cc1)[N+](=O)[O-] [drawing 14] | – | – | – | – | – | – | – | 1.56 (≈ 4.14 µM) | 1.56 (≈ 4.14 µM) | 1.56 (≈ 4.14 µM) | 12.5 (≈ 33.1 µM) | 50 (≈ 133 µM) | 22.5 to 25 (≈ 59.7 to 66.3 µM) | – |
| CCCCNC(=O)Oc1ccc(C=C(C)[N+](=O)[O-])cc1 [drawing 15] | – | – | – | – | – | – | – | 0.78 (≈ 2.8 µM) | 0.39 to 0.78 (≈ 1.4 to 2.8 µM) | 0.78 (≈ 2.8 µM) | 6.25 (≈ 22.5 µM) | 50 (≈ 180 µM) | 12.5 to 25 (≈ 44.9 to 89.8 µM) | – |
| CC(=Cc1ccc(OC(=O)NC2CCCCC2)cc1)[N+](=O)[O-] [drawing 16] | – | – | – | – | – | – | – | 0.78 (≈ 2.56 µM) | 6.25 (≈ 20.5 µM) | 6.25 (≈ 20.5 µM) | 6.25 to 12.5 (≈ 20.5 to 41.1 µM) | 50 (≈ 164 µM) | 25 (≈ 82.1 µM) | – |
| CC(=Cc1ccc(OC(=O)Nc2ccccc2)cc1)[N+](=O)[O-] [drawing 17] | – | – | – | – | – | – | – | 3.12 to 6.25 (≈ 10.5 to 21 µM) | 3.12 (≈ 10.5 µM) | 3.12 (≈ 10.5 µM) | 6.25 (≈ 21 µM) | 25 (≈ 83.8 µM) | 25 (≈ 83.8 µM) | – |
| CC(=Cc1cccc(O)c1)[N+](=O)[O-] [drawing 18] | – | – | – | – | – | – | – | 1.56 (≈ 8.71 µM) | 1.56 (≈ 8.71 µM) | 3.12 (≈ 17.4 µM) | 6.25 (≈ 34.9 µM) | 25 (≈ 140 µM) | 12.5 (≈ 69.8 µM) | – |
| CC(=Cc1ccc(Oc2ncc([N+](=O)[O-])s2)cc1)[N+](=O)[O-] [drawing 19] | – | – | – | – | – | – | – | 0.19 (≈ 0.618 µM) | 0.39 to 0.78 (≈ 1.27 to 2.54 µM) | 0.39 (≈ 1.27 µM) | 1.56 (≈ 5.08 µM) | 12.5 (≈ 40.7 µM) | 3.12 (≈ 10.2 µM) | – |
| CC(=Cc1ccc(O)c(Cl)c1)[N+](=O)[O-] [drawing 20] | – | – | – | – | – | – | – | 1.56 (≈ 7.3 µM) | 1.56 (≈ 7.3 µM) | 3.12 (≈ 14.6 µM) | 6.25 (≈ 29.3 µM) | 50 (≈ 234 µM) | 12.5 (≈ 58.5 µM) | – |
| O=[N+]([O-])C=Cc1cc(Cl)ccc1O [drawing 21] | – | – | – | – | – | – | – | 6.25 (≈ 31.3 µM) | 6.25 to 12.5 (≈ 31.3 to 62.6 µM) | 12.5 (≈ 62.6 µM) | 12.5 (≈ 62.6 µM) | 25 (≈ 125 µM) | 25.5 (≈ 128 µM) | – |
| CC(=Cc1ccc(OC(=O)Nc2ccc(Br)cc2)c(Cl)c1)[N+](=O)[O-] [drawing 22] | – | – | – | – | – | – | – | 1.56 (≈ 3.79 µM) | 1.56 (≈ 3.79 µM) | 3.12 (≈ 7.59 µM) | 6.25 (≈ 15.2 µM) | 50 (≈ 121 µM) | 25 (≈ 60.7 µM) | – |
| CC(=Cc1ccc(OC(=O)Nc2ccccc2)cc1)[N+](=O)[O-] [drawing 25] | – | – | – | – | – | – | – | – | – | – | – | – | – | responders at 400 mg/kg (Hymenolepsis nana; [3]): 100% |
